The record followed here is PMC7144234, “Antiproliferative chromone derivatives induce K562 cell death through endogenous and exogenous pathways” (Journal of Enzyme Inhibition and Medicinal Chemistry, 2020).

One test deals with PBMC. Description: MTT assay, peripheral blood mononuclear cells. The format is cell-based, human. The following applies: 72 h. Here is the method:
(§1) The colorimetric MTT (3-(4,5-dimethylthiazol-2-yl)-2,5-diphenyltetrazolium bromide) assay was used to measure the cell viability of all of the above cell lines following treatment with target hybrids. Exponentially growing cells were added into 96-well plates at a concentration of 2000–4000 cells per well. Following attachment the cells were treated with varying concentrations (64, 16, 4, 1, 0.25, 0.0625 and 0.015625 µM) of target compounds in media and were kept for incubation for 72 h. MTT (20 µL, 5 mg/mL in PBS) was added to each well and the cells were incubated for another 3 h at 37 °C. Then the medium was removed, followed by the addition of 150 µL DMSO for each well. After that, the absorbance (OD) data of each well at 570 nm wavelength were measured by a Microplate Reader (BIO-RAD), and half inhibition rates (IC50) were calculated[59]^,[60].
In general terms: Tetrazolium dyes change colour on reduction, which living cells bring about.

Test [1] relates to K562 cells. In words: Hoechst 33258 staining, morphological analysis. The format is cell-based, human. Here is the method: K562 cells were incubated with different concentrations (0, 0.8, 1.6 and 3.2 µM) of 15a for a period of time, the medium containing the compound was removed, the cell smear was naturally dried, and immersed in 4% paraformaldehyde for 30 min or overnight to improve cell permeability, then soaked in PBS, washed for three times, added appropriate amount of Hoechst 33258 staining solution, fully covered, allowed to stand at room temperature for 10 min, finally immersed in PBS again, washed three times and sealed. Anti-fluorescence quenching after the liquid was sealed, the staining results were observed under a fluorescence microscope.

Test [2] concerns K562 cells. In words: Cell cycle analysis (PI staining, flow cytometry). The format is cell-based, human. The following applies: 72 h. Here is the method:
The cells in the logarithmic growth phase were digested into six-well plates. The next day, cells were treated with different concentrations (0, 0.8, 1.6, 3.2 µM) of compound 15a. After 72 h, 5 × 10^5 cells were collected and fixed with a volume fraction of 70% ethanol for 2 h (or overnight), washed the fixative with PBS, added 100 µL RNase A in 37 °C water bath for 30 min, and finally 400 µL of PI stain was added, after 30 min under the dark at 4 °C, the cytometry was used to record the red fluorescence at the excitation wavelength of 488 nm, and the cell cycle distribution of the DNA content was evaluated.
On the technique in general: In flow cytometry, cells or beads pass a laser one at a time.

The test system of test [3] is K562 cells. In words: Cell apoptosis assay (Annexin V-FITC/PI, flow cytometry). The format is cell-based, human. The following applies: 72 h. Here is the method:
[…] 500 µL of binding buffer suspension cells, 5 µL of Annexin V-FITC, and 5 µL of PI were mixed incubated at room temperature, protected from light, and reacted for 5–15 min, then analysed with flow cytometry instrument to detect cell apoptosis.

The next test deals with Catalase. In words: Human Apoptosis Array kit, catalase expression in K562 cells. The format is cell-based. The following applies: K562, 2 µM, 24 h. Here is the method:
(§2) The relative expression levels of 35 apoptosis-related proteins were evaluated using Human Apoptosis Array kit (R&D Systems, Abingdon, UK) in K562 cells. Proteins were extracted according to the manufacturer’s protocol from cells treated for 24 h with compound 15a (2 µM). The tool is fast, sensitive and economical, with 2.0 ml of array buffer added to each well, followed by array, The capture antibodies are retained in their specific locations, then incubated, transferred, diluted, added to Streptavidin-HRP, shaken. The platform shaker was incubated on the plate for 30 min, then the membrane was removed, 1 ml of the prepared Chemi Reagent Mix was evenly pipetted onto each membrane, incubated, the excess Chemi Reagent Mix was removed, and the membrane was placed in a self-developing film cartridge, exposed to X-ray film for 1–10 min. The positive signals seen on developed film can be quickly identified by placing the transparency overlay template on the array image and aligning it with the pairs of reference spots in three corners of each array. Creating templates, exporting files, averaging signals, finding backgrounds, comparing corresponding signals on the array to determine relative changes in apoptosis-related protein levels.

Another test concerns Claspin. Description: Human Apoptosis Array kit, claspin expression in K562 cells. The format is cell-based. The following applies: K562, 2 µM, 24 h. Here is the method: as §2
The test system of the next test is HCT-116. Description: MTT antiproliferative assay, HCT-116. The format is cell-based, human. Particulars: 72 h, colorectal carcinoma HCT-116. Here is the method: as §1
The subject of the next test is L-02. Description: MTT assay, normal hepatic L-02 cell line. The format is cell-based. Particulars: human normal hepatic L-02 cell line. Here is the method: as §1
For another test, the system named is HepG2. Description: MTT antiproliferative assay, HepG2. Particulars: 72 h, hepatoma HepG2. The format is cell-based, human. Here is the method: as §1
Another test relates to HtrA2. Description: Human Apoptosis Array kit, HtrA2 expression in K562 cells. The following applies: K562, 2 µM, 24 h. Type of test: cell-based. Here is the method:
as §2

In another test the test system is Bad. In words: Human Apoptosis Array kit, Bad expression in K562 cells. The format is cell-based. The following applies: K562, 2 µM, 24 h. Here is the method:
as §2

The subject of the next test is B16. Description: MTT antiproliferative assay, B16. Type of test: cell-based. The following applies: 72 h, melanoma B16. Here is the method: as §1
The test system of another test is Bax. Description: Human Apoptosis Array kit, Bax expression in K562 cells. Type of test: cell-based. The following applies: K562, 2 µM, 24 h. Here is the method: as §2
For another test, the system named is K562. Description: MTT antiproliferative assay, K562. Type of test: cell-based, human. The following applies: 72 h, chronic myeloid leukaemia K562. Here is the method:
as §1

A further test relates to MCF-7. Description: MTT antiproliferative assay, MCF-7. Type of test: cell-based, human. The following applies: breast carcinoma MCF-7. Here is the method: as §1

Turning to “4-((1-(6-Methoxy-4-oxo-4H-chromene-3-carboxamido)propan-2-yl)oxy)-3-(phenylsulfonyl)-1,2,5-oxadiazole 2-oxide [15a]”, the IC50 (in general, the concentration at which inhibition is half-maximal) in the test with PBMC was above 50 µM; with HCT-116 it was 6.74 ± 0.9 µM; with L-02 (72 h), 36.9 ± 0.62 µM; in the test on HepG2, 4.86 ± 0.39 µM; in the test with B16, 9.72 ± 0.52 µM; in the test on K562, 1.61 ± 0.18 µM. The compound also yielded an IC50 with MCF-7 (72 h) of 13.7 ± 0.33 µM. Moreover, the “cell morphology after Hoechst 33258 staining” value in the test on K562 cells [1] (K562, 3.2 µM) is “cell membranes were ruptured and the nuclei were fragmented”; in the test on K562 cells [1] (K562, 0.8 and 1.6 µM) it was “typical apoptotic morphology”. For the same compound, the “cells in G1 phase” value in the test with K562 cells [2] (K562, 0.8 µM) is reported as 48.84%; with K562 cells [2] (K562, 1.6 µM), 41.43%; in the test with K562 cells [2] (K562, 3.2 µM) it was 36.21%. Further, the “cells in G2 phase” value in the test on K562 cells [2] (K562, 0.8 µM) is on record as 10.71%; with K562 cells [2] (K562, 1.6 µM) it was 11.89%; in the test on K562 cells [2] (K562, 3.2 µM) it was 13.51%. The “cells in S phase” value came out at 40.45% in the test on K562 cells [2] (K562, 0.8 µM); 46.68% with K562 cells [2] (K562, 1.6 µM); 50.28% in the test on K562 cells [2] (K562, 3.2 µM). The apoptotic rate with K562 cells [3] (K562, 0.8 µM) is given as 16.28%; with K562 cells [3] (K562, 1.6 µM), 20.56%; in the test on K562 cells [3] (K562, 3.2 µM) it was 51.87%. Further, in the test on Catalase, the “expression of Catalase” value is “up-regulated”. In addition, the “expression of Claspin” value in the test with Claspin was “increased”. Further, the “expression level of HtrA2” value in the test with HtrA2 is “increased the expression levels”. Moreover, the “expression of Bad compared to the control” value in the test on Bad is reported as “increased expression”. Also, in the test with Bax, the “expression of Bax compared to the control” value is given as “increased expression”.
On to `Cc1ccc2occ(C(=O)N3CCN(CCOc4no[n+]([O-])c4S(=O)(=O)c4ccccc4)CC3)c(=O)c2c1` [14c, 4-(2-(4-(6-Methyl-4-oxo-4H-chromene-3-carbonyl)piperazin-1-yl)ethoxy)-3-(phenylsulfonyl)-1,2,5-oxadiazole 2-oxide], for which the IC50 is above 50 µM in the test with PBMC (Homo sapiens, PBMC); 7.93 ± 0.44 µM in the test with HCT-116 (Homo sapiens); 41.3 ± 2.58 µM in the test on L-02 (L02, 72 h); 5.67 ± 0.42 µM in the test on HepG2 (Homo sapiens); 10.6 ± 0.53 µM in the test with B16; 2.98 ± 0.14 µM with K562 (Homo sapiens). In addition, the IC50 with MCF-7 (Homo sapiens, MCF7, 72 h) amounted to 12.8 ± 1.46 µM.
With `O=S(=O)(c1ccccc1)c1c(OCCN2CCNCC2)no[n+]1[O-]` [5d, 3-(phenyl-sulfonyl)-4-(2-(piperazin-1-yl)ethoxy)-1,2,5-oxadiazole-2-oxide], the IC50 in the test with PBMC (Homo sapiens, PBMC) is above 50 µM; in the test with HCT-116 (Homo sapiens) it was above 50 µM; in the test with L-02 (L02, 72 h), above 50 µM; in the test with HepG2 (Homo sapiens), above 50 µM; in the test with B16, above 50 µM; in the test with K562 (Homo sapiens) it was above 50 µM. In addition, in the test with MCF-7 (Homo sapiens, MCF7, 72 h), the concentration for half-maximal inhibition (IC50) was above 50 µM.
As to `CC(CN)Oc1no[n+]([O-])c1S(=O)(=O)c1ccccc1` (centres unmarked) [5c, 4-((1-aminopropan-2-yl)oxy)-3-(phenylsulfonyl)-1,2,5-oxadiazole-2-oxide], the IC50 in the test on PBMC (Homo sapiens, PBMC) was above 50 µM; in the test on HCT-116 (Homo sapiens) it was above 50 µM; in the test with L-02 (L02, 72 h), above 50 µM; in the test with HepG2 (Homo sapiens), above 50 µM; with B16 it was above 50 µM; with K562 (Homo sapiens), above 50 µM. In addition, in the test on MCF-7 (Homo sapiens, MCF7, 72 h), the IC50 is above 50 µM.
With “4-((1-((3-Carboxy-6-methoxy-4-oxo-4H-chromen-2-yl)amino)propan-2-yl)oxy)-3-(phenylsulfonyl)-1,2,5-oxadiazole 2-oxide [15b]”, the IC50 in the test with PBMC, in the test on HCT-116, in the test with L-02 (72 h), with HepG2, with B16 and with K562 was above 50 µM each time. In the test with MCF-7 (72 h), this compound yielded an IC50 above 50 µM.
With “4-(3-((3-Carboxy-6-methoxy-4-oxo-4H-chromen-2-yl)amino)propoxy)-3-(phenylsulfonyl)-1,2,5-oxadiazole 2-oxide [13d]”, the IC50 in the test on PBMC, in the test on HCT-116, in the test with L-02 (72 h), in the test with HepG2, in the test on B16 and in the test with K562 was above 50 µM in each case. For the same compound, in the test on MCF-7 (72 h), the IC50 was above 50 µM.
Regarding `NCCCOc1no[n+]([O-])c1S(=O)(=O)c1ccccc1` [5b, 4-(3-aminopropoxy)-3-(phenylsulfonyl)-1,2,5-oxadiazole-2-oxide], the IC50 in the test with PBMC (Homo sapiens, PBMC) is above 50 µM; in the test with HCT-116 (Homo sapiens) it was 18.9 ± 1.67 µM; with L-02 (L02, 72 h) it was above 50 µM; in the test on HepG2 (Homo sapiens), 17.8 ± 1.43 µM; with B16, 22.9 ± 1.46 µM; in the test with K562 (Homo sapiens), 20.3 ± 1.88 µM. In addition, the IC50 in the test with MCF-7 (Homo sapiens, MCF7, 72 h) is above 50 µM.
